System: ABCA1 mRNA
Assay: ABCA1 mRNA induction in cultured peritoneal macrophages
Type: cell-based, mice
Conditions: 24 hours
From the text: The individual contributions of both receptors to macrophage gene expression were examined by first measuring the amount of mRNA encoding LXRα and LXRβ in thioglycolate-elicited peritoneal macrophages obtained from mixed wildtype mice. Thioglycolate-elicited peritoneal macrophages were isolated from mice 4 days after peritoneal injection of thioglycolate media. Peritoneal macrophages were harvested by lavage of the peritoneum with phosphate buffered saline (PBS), cells were washed, transferred to 60 mm culture plates and incubated at 37° C. in RPMI 1640 media (Life Technologies) containing 10% FBS, 2 mmol/L glutamine, 100 μg/mL streptomycin and 100 IU penicillin (Life Technologies). After 5 hours at 37° C., cells were washed 5 times with PBS to remove non-adherent cells and adherent cells were further incubated in RPMI 1640 media supplemented with 10% FBS for 24 hours. To determine the mRNA levels of LXRα and LXRβ, after 24 hours total RNA was isolated from cultured macrophages using RNeasy kits (QIAGEN Inc.) according to the supplier's total RNA isolation procedure. The RNA samples were further treated with deoxyribonuclease I to eliminate contaminating genomic DNA. LXRα and LXRβ mRNA levels were than analyzed by real-time based quantitative PCR using Perkin Elmer ABI Prism 7700 and Sequence Detection System software (Perkin Elmer). […] To further examine LXR-dependent gene expression in macrophages, peritoneal macrophages were isolated as described above from mixed wildtype, LXRα−/− (C57BL/6), LXRβ−/−, and LXRαβ−/− mice. After removal of non-adherent cells, the remaining macrophages were than cultured in either the absence or presence of LXR pan-agonist (1.0 μM Compound 1) for 24 hours. At the end of the experiment total RNA was isolated from cultured macrophages using RNeasy kits (QIAGEN Inc.) according to the supplier's total RNA isolation procedure. RNA samples were further treated with deoxyribonuclease I to eliminate contaminating genomic DNA before use. The LXR agonist-dependent induction of the ABCA1 and ABCG1 mRNAs were than analyzed by real-time based quantitative PCR using Perkin Elmer ABI Prism 7700 and Sequence Detection System software (Perkin Elmer). ABCA1 and ABCG1 function as efflux pumps that mediate the transfer of intracellular cholesterol out of cells to HDL particles, a process referred to as reverse cholesterol transport. […] Elimination of LXRα activity (LXRα−/−) has no effect on the agonist-dependent response. In contrast, elimination of LXRβ activity (LXRβ−/−) reduces the agonist-dependent induction of ABCA1 by 82% and the ABCG1 induction by 50%. […] Thus LXRβ alone is sufficient to allow the maximum induction of ABCA1 and ABCG1 in peritoneal macrophages.

O=S(=O)(c1ccccc1)N(CC(F)(F)F)c1ccc(C(O)(C(F)(F)F)C(F)(F)F)cc1 [Compound 1, N-(2,2,2-trifluoroethyl)-N-[4-(2,2,2-trifluoro-1-hydroxy-1-trifluoromethylethyl)-phenyl]-benzene sulfonamide]
agonist-dependent ABCA1 mRNA induction (LXRαβ−/− macrophages, 1.0 μM): completely blocks the response
agonist-dependent ABCA1 mRNA induction (LXRα−/− macrophages, 1.0 μM): no effect
reduction of agonist-dependent induction of ABCA1 (LXRβ−/− macrophages versus wildtype, 1.0 μM): 82%
fold induction at 1 µM (Mus musculus, Macrophage, wildtype macrophages): 28

Source: patent US6924311B2, “Methods for affecting various diseases utilizing LXR compounds” (X-Ceptor Therapeutics, Inc., priority 2001, dated 2005)
